# Assay results reported in PubChem BioAssay (NCI).
#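 Briefly, cells in 96-well plates were exposed to five compound concentrations for 48 h, and endpoints were estimated by linear interpolation. GI50 marks 50% less growth. At the TGI there is no net growth.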
# Columns and labels:
# Assay in all cases: NCI anticancer screen, dose series, 48 h
# SF-539 CNS = tested on: SF-539 CNS
# ACHN renal = tested on: ACHN renal
# HT29 colon = tested on: HT29 colon
# OVCAR-4 ovarian = tested on: OVCAR-4 ovarian
# HL-60(TB) leukemia = tested on: HL-60(TB) leukemia
# SN12C renal = tested on: SN12C renal
# CAKI-1 renal = tested on: CAKI-1 renal
# DU-145 prostate = tested on: DU-145 prostate
# HS 578T breast = tested on: HS 578T breast
# MDA-MB-435 = tested on: MDA-MB-435
SMILES,TGI (SF-539 CNS) [µM],TGI (ACHN renal) [µM],TGI (HT29 colon) [µM],TGI (OVCAR-4 ovarian) [µM],TGI (HL-60(TB) leukemia) [µM],TGI (SN12C renal) [µM],TGI (CAKI-1 renal) [µM],GI50 (HL-60(TB) leukemia) [µM],GI50 (SF-539 CNS) [µM],GI50 (ACHN renal) [µM],GI50 (DU-145 prostate) [µM],TGI (DU-145 prostate) [µM],GI50 (HT29 colon) [µM],GI50 (OVCAR-4 ovarian) [µM],GI50 (HS 578T breast) [µM],TGI (HS 578T breast) [µM],GI50 (SN12C renal) [µM],GI50 (CAKI-1 renal) [µM],GI50 (MDA-MB-435) [µM],TGI (MDA-MB-435) [µM]
CC(C)=Cc1cc(C(=O)Nc2ccc(Cl)c(Cl)c2)nc(N)n1,> 100,> 100,> 100,> 100,> 100,> 100,> 100,,,,,,,,,,,,,
O=C(/C=C\c1ccc(Cl)c(Cl)c1)c1ccc(Cl)cc1Cl,37.7,31.6,34.2,88.7,23.3,> 100,> 100,3.46,,,,,,,,,,,,
COc1cc(/C=C2\CN(S(=O)(=O)c3ccccc3)C/C(=C\c3cc(CN4CCCC4)c(O)c(OC)c3)C2=O)cc(CN2CCCC2)c1O,3.31,4.94,1.65,3.09,2.73,3.22,5.21,0.513,1.64,1.99,0.542,1.91,0.252,1.27,2.52,7.22,1.08,1.83,,
CC(C)OP(=O)(OC(C)C)C(=NCCN=C(NNc1ccc([N+](=O)[O-])cc1)P(=O)(OC(C)C)OC(C)C)NNc1ccc([N+](=O)[O-])cc1,> 100,66.5,,> 100,> 100,> 100,25.4,,,,,,,,,,,,,
O=C(/C=C/c1ccncc1)c1cc(Cl)ccc1O,41.9,60,29.7,88.1,,68.4,38.5,,18,23.9,17.4,31.5,14.1,27.3,39.5,> 100,23.4,14.3,17.1,41
COc1cc2c(c(OC)c1OC)-c1ccc(OC)c(=O)cc1C(NC(=O)c1ccc(N=[N+]=[N-])cc1)CC2 (configuration not stated),0.0611,> 100,0.208,> 100,0.441,> 41.9,0.243,,,,,0.439,,,,> 100,,,,0.0473
O=C1OC(O)[C@@H]2[C@H]1[C@H]1CC[C@@H]2O1 (some centres not stated),> 100,> 100,32.2,> 100,> 100,> 100,> 100,> 42.3,> 100,> 89.6,> 87.3,> 100,4.99,> 100,> 100,> 100,> 92.3,71.9,> 100,> 100
CC(=O)OC1COC(n2ccc3cc(Br)c([N+](=O)[O-])cc32)C(OC(C)=O)C1OC(C)=O (configuration not stated),44.4,> 100,> 100,,,> 100,> 100,,,,,,,,,,,,,
Cn1c2ccccc2c2cc(-c3ccccc3)c3c(c21)C(=O)c1ccccc1C3=O,49.2,,> 100,34.3,35.9,> 100,> 100,,,,,,,,,,,,,
CC(=O)/C(=C\c1cccc([N+](=O)[O-])c1)C(=O)Nc1ccccc1C,> 100,> 100,> 100,> 100,57.9,> 100,> 100,,,,,,,,,,,,,
Clc1ccc(C(c2ccc(Cl)cc2)c2ccccn2)cc1,33.7,45.9,30.8,70.2,55.8,31.7,56.8,,,,,,,,,,,,,
Cc1cccc(NC(=O)Cn2cnc3sc(C(=O)OC(C)C)c(C)c3c2=O)c1,21.5,26.6,,,> 50,22.3,> 50,> 50,8.77,9.73,9.33,36.6,,,16.5,> 50,7.66,45.9,> 50,> 50
Cc1ccc(S(=O)(=O)Nc2ccccc2C(=O)c2ccc(C)c(C)c2)cc1,> 100,> 100,> 100,> 100,,> 100,> 100,,,,,> 100,,,,> 100,,,,> 100
Brc1ccccc1C1SCc2nc3ccccc3n21 (configuration not stated),33,81,60.9,75.9,34.1,25.8,61.2,,,,,,,,,,,,,
COc1cc2c3c(n(C)c(=O)c2cc1OC)-c1cc2c(cc1/C3=C\CCCN)OCO2,6.25,8.64,> 100,52.7,,,8.62,,1.65,2.09,5.57,54.1,4.57,17.9,24.7,87.6,,1.99,8.6,41.6
OCC#Cc1ccccc1C#Cc1ccccc1,,28.1,97.6,45.2,,21.3,25.5,,,14.9,14.9,28.2,23.6,17,18.3,43.7,8.79,12.2,14.2,28.1
Cc1c2c(nn1-c1ccc(S(=O)(=O)/N=C3\SCCC(=O)N3c3ccccc3)cc1)-c1ccccc1CC2,,> 100,> 100,> 100,> 100,> 100,> 100,> 100,,> 100,> 100,> 100,> 100,> 100,,,87.5,> 100,> 100,> 100
CCN1CCN(c2nc(C)cc(N(CCNc3ccnc4cc(Cl)ccc34)Cc3ccc4c(c3)OCO4)n2)CC1,3.18,5.26,4.83,11.4,4.22,8.27,,2.1,1.7,2.26,,,1.83,2.58,,,2.58,,1.7,3.25
CCc1cc(Cc2cc(CC)c(NC(=O)C(=O)Cc3ccccn3)c(CC)c2Cl)c(Cl)c(CC)c1NC(=O)C(=O)Cc1ccccn1,> 100,> 100,> 100,> 100,> 100,> 100,> 100,,,,,,,,,,,,,
C#CC1(O)CCC2C3CCc4cc(Oc5nc(F)nc(-c6c7ccccc7c7sc8ccccc8n67)n5)ccc4C3CC[C@@]21C (some centres not stated),> 100,> 100,> 100,> 100,> 100,,> 100,,,,,,,,,,,,,
COc1ccc([C@H]2[C@@H](F)C(=O)N2c2cc(OC)c(OC)c(OC)c2)cc1F,0.217,,> 100,> 100,0.399,> 100,,0.0805,0.028,,0.269,> 100,0.134,0.966,0.295,> 100,0.482,,,

SMILES,TGI (SF-539 CNS) [µM],TGI (ACHN renal) [µM],TGI (HT29 colon) [µM],TGI (OVCAR-4 ovarian) [µM],TGI (HL-60(TB) leukemia) [µM],TGI (SN12C renal) [µM],TGI (CAKI-1 renal) [µM],GI50 (HL-60(TB) leukemia) [µM],GI50 (SF-539 CNS) [µM],GI50 (ACHN renal) [µM],GI50 (DU-145 prostate) [µM],TGI (DU-145 prostate) [µM],GI50 (HT29 colon) [µM],GI50 (OVCAR-4 ovarian) [µM],GI50 (HS 578T breast) [µM],TGI (HS 578T breast) [µM],GI50 (SN12C renal) [µM],GI50 (CAKI-1 renal) [µM],GI50 (MDA-MB-435) [µM],TGI (MDA-MB-435) [µM]
COC(OC)C(C)CC(=O)N(C)C (configuration not stated),> 100,> 100,> 100,> 100,> 100,> 100,,,,,,,,,,,,,,
CCOC(=O)CC(=O)ON(C)C(C)=O,> 100,> 100,> 100,> 100,> 100,> 100,> 100,,,,,,,,,,,,,
O=c1cc(-c2ccccc2)oc2cc(OCCCOc3ccc4c(=O)cc(-c5ccccc5)oc4c3)ccc12,> 100,> 100,> 100,> 100,> 100,> 100,> 100,,,,,,,,,,,,,
COc1ccc(S(=O)(=O)NNS(C)(=O)=O)cc1,> 100,> 100,> 100,> 100,> 100,> 100,> 100,,,,,,,,,,,,,
CN(C)c1nc(=Nc2ccc(N=c3nc(N(C)C)ss3)cc2)ss1,> 100,> 100,54.5,48.1,45.3,> 92.3,> 59.5,,,,,,,,,,,,,
C=C1C(=O)O[C@H]2[C@H]1CC/C(COC(=O)c1c[nH]c3ccccc13)=C\CC[C@@]1(C)O[C@@H]21,1,0.592,0.58,0.842,0.789,0.623,,0.278,0.264,0.215,0.383,1.4,0.249,0.258,0.613,6.83,0.237,,0.242,0.654
CC(C)(C)OC(=O)N[C@H]1CC2(C=C(Cl)C(=O)C(Cl)=C2)OC1=O,45.1,28.2,27.9,32.5,6.53,33.3,26.5,,,,,78.9,,,,75.5,,,,
CCOC(=O)NC(=O)c1cn(CCCO)c(=O)[nH]c1=O,> 100,> 100,> 100,> 100,,> 100,> 100,,,,,,,,,,,,,
O=C(CSc1ccc(Cl)cc1)Nc1ccc(-c2nc3ccccc3s2)c(Cl)c1,32.7,36.9,> 100,> 100,> 100,72.8,10.3,13.4,14.5,4.09,,,6.86,5.95,2.56,7.99,3.57,2.53,3.72,35.4
C/C(=N\NC(=S)NC(CCC(=O)O)C(=O)O)c1ccccn1 (configuration not stated),> 100,> 100,> 100,> 100,> 100,> 100,,,,,,,,,,,,,,
c1ccc(COc2cccc3ccc[n+](Cc4ccccc4)c23)cc1,> 100,52.7,> 100,45.7,5.75,,,,,,,,,,,,,,,
CCN1c2ccccc2C(C(SC)S(=O)(=O)c2ccc(C)cc2)c2c1[nH]c(=O)n(C)c2=O (configuration not stated),> 100,,> 100,> 100,> 100,> 100,> 100,,,,,,,,,,,,,
COc1cc(C2c3cc4c(cc3OC(C)(O)C2C)OCO4)cc(OC)c1OC (configuration not stated),0.888,> 100,> 100,,0.53,> 100,> 100,,,,,> 100,,,,> 100,,,,> 100
Cn1cnc([N+](=O)[O-])c1Sc1nc2ccccc2[nH]1,27.8,59.9,> 100,> 100,> 100,30.2,17.2,,,,,,,,,,,,,
COc1ccc(-c2nnc(COc3ccc(NC(=O)Nc4cc(C(F)(F)F)cc(C(F)(F)F)c4)cc3F)o2)cc1,5.28,10.1,4.74,8.53,6.02,5.39,,2.34,2.09,2.54,2.15,4.84,2.21,2.29,1.99,5.55,1.93,,2.11,5
[Cl-].[La+3].[O-]/N=C(\c1ccccc1)c1ccccn1.[O-]/N=C(\c1ccccc1)c1ccccn1.[O-]/N=C(\c1ccccc1)c1ccccn1,> 85.7,,> 100,,> 100,> 100,> 91.2,33.5,29.7,,,,50.4,,,,23.5,48.4,,
Cc1cc(-c2ccc3nc(C4CCOCC4)n(CCOC(F)(F)F)c3c2)cn(C)c1=O,,,> 63.1,,0.197,31.1,,0.0247,,,,,,,,0.888,1.22,,0.21,> 47.5
CN(C)c1ccc(/C=C(\NC(=O)c2ccccc2)c2nc3ncncc3[nH]2)cc1,> 100,> 100,> 100,> 100,> 100,> 100,> 100,,,,,,,,,,,,,
CC1=CC(O)(c2ccc(-c3ccccc3Cl)cc2)OC1=O (configuration not stated),> 100,> 100,> 100,> 100,> 100,> 100,> 100,,,,,,,,,,,,,
CCOC(=O)C(=C=C=C(c1ccccc1)c1ccccc1)C(=O)OCC,33.8,36.7,41.7,33.7,38.5,42.4,,,,,,,,,,,,,,
